# Measured values as given in ChEMBL document CHEMBL1201862, “PubChem BioAssay data set” (2004).
# Active and inactive are the calls of the source.
# Tests used:
# [1] = A cytotoxicity screen of small molecule inhibitors of the PhoP region in Salmonella typhi identified in the primary screen. [Related pubchem assays: 1850, 1864, 1985 ]; assay type: functional
# [2] = biological target: T1, Short transient receptor potential channel 4 (Mus musculus, UniProt Q9QUQ5); experiment: mouse TRPC4 channel inhibitors, dose response, cell-based, HEK293 TRPC4/mu-opioid, Fluo-4 calcium (AID 434942); assay type: functional;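 also: potency of inhibitors blocking the TRPC4 calcium response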
# T1 sequence (Q9QUQ5 whole entry): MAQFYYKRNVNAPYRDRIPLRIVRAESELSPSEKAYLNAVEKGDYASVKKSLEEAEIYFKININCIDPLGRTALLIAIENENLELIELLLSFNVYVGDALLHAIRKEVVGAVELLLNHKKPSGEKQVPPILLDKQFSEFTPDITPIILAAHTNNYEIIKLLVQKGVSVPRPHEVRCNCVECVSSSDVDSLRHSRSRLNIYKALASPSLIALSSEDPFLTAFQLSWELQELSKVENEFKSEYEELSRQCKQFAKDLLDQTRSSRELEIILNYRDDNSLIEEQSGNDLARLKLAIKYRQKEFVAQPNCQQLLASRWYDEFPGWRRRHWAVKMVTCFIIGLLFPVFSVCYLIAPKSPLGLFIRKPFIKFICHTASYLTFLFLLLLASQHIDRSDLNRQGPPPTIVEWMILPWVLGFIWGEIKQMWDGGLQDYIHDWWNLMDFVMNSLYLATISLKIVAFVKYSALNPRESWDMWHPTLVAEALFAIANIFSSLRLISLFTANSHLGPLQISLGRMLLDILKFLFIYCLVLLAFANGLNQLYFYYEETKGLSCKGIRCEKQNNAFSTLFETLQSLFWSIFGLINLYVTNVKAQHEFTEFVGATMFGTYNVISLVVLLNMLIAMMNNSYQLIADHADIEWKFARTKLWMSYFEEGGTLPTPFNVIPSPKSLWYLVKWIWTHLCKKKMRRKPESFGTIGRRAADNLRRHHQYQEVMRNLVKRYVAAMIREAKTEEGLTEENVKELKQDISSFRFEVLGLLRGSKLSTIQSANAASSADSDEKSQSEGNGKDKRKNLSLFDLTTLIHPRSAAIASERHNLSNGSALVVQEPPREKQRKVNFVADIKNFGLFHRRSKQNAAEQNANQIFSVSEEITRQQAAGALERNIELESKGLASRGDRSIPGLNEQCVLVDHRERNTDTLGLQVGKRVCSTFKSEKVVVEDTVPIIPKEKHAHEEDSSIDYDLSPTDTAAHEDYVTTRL
# CAAX prenyl protease 1 = CAAX prenyl protease 1 (Saccharomyces cerevisiae S288c, UniProt P47154); experiment: Ste24 protease inhibitors, dose response, biochemical, S. cerevisiae, plate reader, cherry-pick (AID 488815)
# [3] = biological target: T2, DNA repair and recombination protein RAD54-like (Homo sapiens, UniProt Q92698); experiment: inhibitors of human RAD54 branch migration, confirmation, biochemical, fluorescence, cherry-picked samples, dose series (AID 651657); assay type: functional
# T2 sequence (Q92698 whole entry): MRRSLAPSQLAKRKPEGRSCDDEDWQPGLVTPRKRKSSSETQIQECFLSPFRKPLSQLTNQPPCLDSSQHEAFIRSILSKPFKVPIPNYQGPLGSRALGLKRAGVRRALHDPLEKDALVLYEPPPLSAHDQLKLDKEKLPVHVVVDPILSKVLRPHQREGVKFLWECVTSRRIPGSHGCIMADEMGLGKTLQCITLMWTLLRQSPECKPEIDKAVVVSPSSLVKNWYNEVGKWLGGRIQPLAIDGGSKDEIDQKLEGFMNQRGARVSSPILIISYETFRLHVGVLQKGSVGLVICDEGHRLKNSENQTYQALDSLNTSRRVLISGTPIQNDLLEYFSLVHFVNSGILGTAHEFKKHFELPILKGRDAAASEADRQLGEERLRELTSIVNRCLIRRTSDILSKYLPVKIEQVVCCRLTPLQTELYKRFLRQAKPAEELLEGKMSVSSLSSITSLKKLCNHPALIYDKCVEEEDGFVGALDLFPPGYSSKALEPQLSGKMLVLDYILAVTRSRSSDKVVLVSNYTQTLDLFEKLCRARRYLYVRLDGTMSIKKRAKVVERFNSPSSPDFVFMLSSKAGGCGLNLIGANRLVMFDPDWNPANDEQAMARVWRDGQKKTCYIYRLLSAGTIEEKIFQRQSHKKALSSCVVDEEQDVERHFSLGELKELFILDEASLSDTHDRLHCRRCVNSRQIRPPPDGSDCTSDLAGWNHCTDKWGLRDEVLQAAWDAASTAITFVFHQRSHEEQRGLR
# [4] = biological target: DNA repair protein RAD52 homolog (Homo sapiens, UniProt P43351); assay type: functional, biochemical
# HEK293 [5] = experiment: NOD1 signaling inhibitors, primary screen, cell-based, luminescence, uHTS (AID 1578); assay type: functional; settings: Homo sapiens
# [6] = system: Streptococcus sp. 'group A'; experiment: growth inhibition of control SK(-) GAS strain, dose response, counter-screen for streptokinase expression inhibitor project, luminescence, kanamycin, BacTiterGlo, confirmation (AID 1900); assay type: functional, organism-based
# HEK293 [7] = experiment: cells; assay type: functional, cell-based; settings: Homo sapiens
# Streptokinase A = biological target: T3, Streptokinase A (Streptococcus pyogenes serotype M1, UniProt P10520); experiment: S. pyogenes streptokinase expression inhibitors, potency, dose response, plasminogen activation absorbance, OD405 (AID 1914); assay type: functional, Streptococcus pyogenes M1 GAS;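 also: secreted streptokinase activity via plasminogen activation per viability signal from cell pellet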
# T3 sequence (P10520 whole entry): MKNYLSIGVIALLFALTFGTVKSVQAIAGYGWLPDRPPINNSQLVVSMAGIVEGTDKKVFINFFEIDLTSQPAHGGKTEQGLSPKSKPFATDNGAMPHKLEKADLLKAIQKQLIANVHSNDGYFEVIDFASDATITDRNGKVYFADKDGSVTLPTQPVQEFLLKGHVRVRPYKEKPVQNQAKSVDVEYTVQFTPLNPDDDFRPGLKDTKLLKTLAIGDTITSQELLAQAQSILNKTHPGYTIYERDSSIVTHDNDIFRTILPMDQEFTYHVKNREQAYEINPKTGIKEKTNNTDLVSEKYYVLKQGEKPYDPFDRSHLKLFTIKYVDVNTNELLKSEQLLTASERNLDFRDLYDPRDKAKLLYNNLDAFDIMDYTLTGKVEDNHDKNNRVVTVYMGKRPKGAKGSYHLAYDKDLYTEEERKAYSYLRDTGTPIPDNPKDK
# HEK293 [8] = experiment: cells; assay type: functional, cell-based; settings: Homo sapiens; remark: listed apart in the source
# HEK293 [9] = experiment: NOD2 signaling inhibitors in MDP-stimulated cells, cell-based, uHTS, luminescence (AID 2001); assay type: functional; settings: Homo sapiens
# Streptococcus = experiment: Group A Streptococcus viability loss, dose response, counter-screen for streptokinase expression inhibitor project, luminescence, BacTiterGlo (AID 1915); assay type: functional, organism-based;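 also: potency for reduction of bacterial viability or growth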
# Exodeoxyribonuclease V = Exodeoxyribonuclease V (Escherichia coli (strain K12), UniProt P04993+P07648+P08394); experiment: E. coli RecBCD inhibitors, dose response, counter-screen for AddAB inhibitor project, absorbance, V66 E. coli, mutant T4 phage (AID 492957); assay type: functional, cell-based, Escherichia coli str. K-12 substr. MG1655
# [10] = Counterscreen for AddAB inhibitors: absorbance-based bacterial cell-based high throughput dose response assay for inhibitors of bacterial viability. [Related pubchem assays (depositor defined):AID435030, AID449728, AID449731, AID488942, AID488955, AID488956]; assay type: functional
# INS1 = experiment: beta cell apoptosis inhibitors, cytokine rescue, dose response, luminescence, retest (AID 449756); assay type: functional, cell-based; settings: Rattus norvegicus;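 also: cell death triggered by IL-1 beta plus TNF-alpha plus IFN-gamma mixture; protective hits raise ATP signal compared with cytokine alone wells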
# [11] = biological target: Cyclin-dependent kinase 5/CDK5 activator 1 (Homo sapiens, UniProt Q00535); experiment: CDK5/p35 kinase inhibitors, dose response, biochemical, cherry-picked samples, set 2 (AID 504545)
# [12] = NIH-3T3 fibroblast cytotoxicity, dose response, cytotoxicity control, cell-based, fluorescence, Alamar Blue, secondary assay (AID 2327); assay type: functional;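 also: NIH-3T3 mouse fibroblasts cultured with fluconazole at 8 µg/mL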
# [13] = insulin promoter down-regulators in MIN6 cells, imaging, high-content screening, mouse beta cells (AID 1628); assay type: functional
# cells [14] = assay type: functional, cell-based
# [15] = cytotoxicity in MIN6 insulinoma cells, dose response, cytotoxicity control, cell-based, mouse insulinoma (AID 2122); assay type: functional;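 also: confirmatory high-throughput counterscreen run to flag cytotoxic compounds; mouse MIN-6 beta cells carrying an insulin promoter eGFP reporter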
# [16] = C. albicans growth with fluconazole, confirmation, fluorescence, retest (AID 2467); assay type: functional, cell-based
# [17] = inhibitors of intracellular T. cruzi replication, confirmation, NIH3T3 host cells, beta-gal luminescence (AID 2044); assay type: functional, cell-based;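 also: intracellular parasites grown in NIH/3T3 mouse fibroblasts as host cells; luminescent beta-galactosidase reporter signal from transgenic T. cruzi replicating inside host cells; inhibitors lower the luminescence signal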
# cells [18] = assay type: functional, cell-based; remark: listed apart in the source
# [19] = cytotoxicity toward NIH3T3 fibroblasts, dose response, counter-screen, cell-based, ATP luminescence, mouse fibroblasts (AID 2010); assay type: functional;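 also: cells exposed to compound for about 90 hours before reading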
# [20] = biological target: Intestinal-type alkaline phosphatase (Mus musculus, UniProt P24822); experiment: PubChem AID 488874; assay type: functional
# [21] = biological target: T4, Intestinal-type alkaline phosphatase (Homo sapiens, UniProt P09923); experiment: human intestinal alkaline phosphatase activators, dose response, biochemical, luminescence, uHTS hits (AID 463120); assay type: functional
# [22] = biological target: T4, Intestinal-type alkaline phosphatase; experiment: human IAP activators, dose response, biochemical, luminescent, uHTS hits, set 2 (AID 488817); assay type: functional;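 also: potency of activators that raise enzyme activity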
# [23] = biological target: T5, Alkaline phosphatase, tissue-nonspecific isozyme (Homo sapiens, UniProt P05186); experiment: TNAP enzyme activators, dose response, selectivity assay for human IAP activator project, biochemical, TNAP isozyme, human IAP uHTS hits (AID 488886); assay type: functional;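 also: potency of compounds raising TNAP activity as a selectivity check on IAP activators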
# T5 sequence (P05186 whole entry): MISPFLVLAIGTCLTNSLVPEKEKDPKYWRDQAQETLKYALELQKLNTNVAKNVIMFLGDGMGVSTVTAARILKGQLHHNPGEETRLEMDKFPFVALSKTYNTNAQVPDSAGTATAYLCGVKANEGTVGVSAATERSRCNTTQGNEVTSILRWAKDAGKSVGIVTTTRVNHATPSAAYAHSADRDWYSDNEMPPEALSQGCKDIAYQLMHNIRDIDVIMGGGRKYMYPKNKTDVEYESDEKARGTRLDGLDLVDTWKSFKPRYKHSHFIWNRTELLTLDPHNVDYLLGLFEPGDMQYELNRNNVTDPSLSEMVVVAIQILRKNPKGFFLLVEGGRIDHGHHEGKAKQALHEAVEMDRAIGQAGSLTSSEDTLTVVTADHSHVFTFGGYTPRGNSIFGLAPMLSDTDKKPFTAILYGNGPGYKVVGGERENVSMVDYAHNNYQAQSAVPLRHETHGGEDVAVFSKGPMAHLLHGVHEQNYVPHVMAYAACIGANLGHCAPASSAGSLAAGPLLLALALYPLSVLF
# [24] = luciferase reporter signal reduction – luminescence, H4-C neuroglioblastoma cells, dose response (AID 2458); assay type: functional, cell-based;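 also: H4 neuroglioblastoma cells stably carrying a luciferase reporter gene fusion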
# cells [25] = assay type: functional, cell-based; remark: listed apart in the source
# [26] = inhibitors of SNCA 5'UTR-driven reporter translation, confirmation, H4 neuroglioma cells, luminescence (AID 1988); assay type: functional, cell-based
# [27] = inhibitors of SNCA 5'UTR-driven translation, confirmation, luminescence, H4 neuroglioblastoma cells, dose confirmation (AID 2454); assay type: functional, cell-based;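 also: H4 neuroglioblastoma cells carrying an alpha-synuclein 5'UTR luciferase reporter; potency for inhibition of the luciferase signal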
# [28] = cytotoxicity in HEK-293T cells, dose response, cytotoxicity control for TCR NF-kB inhibitor project, luminescence, T-cell screen hits (AID 489026); assay type: functional, cell-based;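 also: cells exposed to compound about 14 hours before the viability readout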
# T4 sequence (P09923 whole entry): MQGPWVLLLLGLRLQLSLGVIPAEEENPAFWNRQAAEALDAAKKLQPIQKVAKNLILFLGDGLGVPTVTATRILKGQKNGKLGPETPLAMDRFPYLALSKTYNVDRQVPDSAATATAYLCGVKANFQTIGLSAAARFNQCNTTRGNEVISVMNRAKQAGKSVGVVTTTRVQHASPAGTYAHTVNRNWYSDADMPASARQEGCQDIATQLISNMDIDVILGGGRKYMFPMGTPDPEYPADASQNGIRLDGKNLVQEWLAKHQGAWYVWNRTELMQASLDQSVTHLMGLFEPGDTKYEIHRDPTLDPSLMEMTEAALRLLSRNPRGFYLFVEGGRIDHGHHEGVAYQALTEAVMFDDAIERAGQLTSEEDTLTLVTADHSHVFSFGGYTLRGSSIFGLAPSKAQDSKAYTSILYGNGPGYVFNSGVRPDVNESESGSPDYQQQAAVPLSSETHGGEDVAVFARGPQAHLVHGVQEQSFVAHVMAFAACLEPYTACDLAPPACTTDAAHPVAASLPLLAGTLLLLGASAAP
# Sequence of Intestinal-type alkaline phosphatase (Mus musculus, UniProt P24822) (P24822 whole entry): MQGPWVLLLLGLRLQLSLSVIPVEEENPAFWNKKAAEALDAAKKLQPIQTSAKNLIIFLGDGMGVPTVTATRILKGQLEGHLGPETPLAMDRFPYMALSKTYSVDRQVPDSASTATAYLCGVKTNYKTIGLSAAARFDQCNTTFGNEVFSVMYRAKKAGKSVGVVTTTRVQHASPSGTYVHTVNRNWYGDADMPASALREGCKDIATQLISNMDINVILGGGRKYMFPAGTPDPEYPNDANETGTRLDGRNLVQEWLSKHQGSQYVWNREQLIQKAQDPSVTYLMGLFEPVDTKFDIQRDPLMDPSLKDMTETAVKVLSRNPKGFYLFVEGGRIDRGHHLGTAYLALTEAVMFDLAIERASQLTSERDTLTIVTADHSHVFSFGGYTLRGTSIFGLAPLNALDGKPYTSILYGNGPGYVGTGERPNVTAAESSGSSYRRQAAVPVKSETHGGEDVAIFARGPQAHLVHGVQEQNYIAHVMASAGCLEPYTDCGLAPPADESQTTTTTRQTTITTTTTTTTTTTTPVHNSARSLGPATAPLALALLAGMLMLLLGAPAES
# Sequence of CAAX prenyl protease 1 (P47154 whole entry): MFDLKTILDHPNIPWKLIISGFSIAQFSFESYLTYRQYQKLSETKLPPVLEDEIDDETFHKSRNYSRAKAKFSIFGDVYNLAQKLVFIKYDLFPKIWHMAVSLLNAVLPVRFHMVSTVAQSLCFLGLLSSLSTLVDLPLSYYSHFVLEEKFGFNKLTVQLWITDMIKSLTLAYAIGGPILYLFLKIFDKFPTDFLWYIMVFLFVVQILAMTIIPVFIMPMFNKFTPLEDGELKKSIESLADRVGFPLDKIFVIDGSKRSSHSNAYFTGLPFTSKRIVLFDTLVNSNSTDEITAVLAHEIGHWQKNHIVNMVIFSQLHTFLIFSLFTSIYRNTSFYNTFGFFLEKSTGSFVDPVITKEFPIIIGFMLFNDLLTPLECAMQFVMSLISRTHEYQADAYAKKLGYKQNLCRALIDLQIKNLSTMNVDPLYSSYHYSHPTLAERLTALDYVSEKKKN
# Sequence of Cyclin-dependent kinase 5/CDK5 activator 1 (Q00535 whole entry): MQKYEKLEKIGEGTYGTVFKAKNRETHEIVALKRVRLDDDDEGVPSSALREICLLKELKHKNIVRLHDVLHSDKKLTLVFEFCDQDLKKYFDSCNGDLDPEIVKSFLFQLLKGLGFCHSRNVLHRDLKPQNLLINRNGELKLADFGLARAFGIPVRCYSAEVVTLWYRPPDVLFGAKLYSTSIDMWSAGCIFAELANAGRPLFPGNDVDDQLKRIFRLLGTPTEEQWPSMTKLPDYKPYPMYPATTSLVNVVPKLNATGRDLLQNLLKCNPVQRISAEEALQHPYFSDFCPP
# Sequence of Cyclin-dependent kinase 5/CDK5 activator 1 (Q15078 whole entry, further chain): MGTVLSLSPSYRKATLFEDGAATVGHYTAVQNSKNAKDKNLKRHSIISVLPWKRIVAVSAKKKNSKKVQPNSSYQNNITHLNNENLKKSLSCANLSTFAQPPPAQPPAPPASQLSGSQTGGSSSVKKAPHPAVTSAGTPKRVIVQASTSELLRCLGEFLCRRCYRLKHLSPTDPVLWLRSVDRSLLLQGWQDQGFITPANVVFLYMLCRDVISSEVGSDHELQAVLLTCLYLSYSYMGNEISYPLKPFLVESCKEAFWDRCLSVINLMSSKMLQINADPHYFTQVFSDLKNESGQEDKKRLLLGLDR
# Sequence of Exodeoxyribonuclease V (P04993 whole entry): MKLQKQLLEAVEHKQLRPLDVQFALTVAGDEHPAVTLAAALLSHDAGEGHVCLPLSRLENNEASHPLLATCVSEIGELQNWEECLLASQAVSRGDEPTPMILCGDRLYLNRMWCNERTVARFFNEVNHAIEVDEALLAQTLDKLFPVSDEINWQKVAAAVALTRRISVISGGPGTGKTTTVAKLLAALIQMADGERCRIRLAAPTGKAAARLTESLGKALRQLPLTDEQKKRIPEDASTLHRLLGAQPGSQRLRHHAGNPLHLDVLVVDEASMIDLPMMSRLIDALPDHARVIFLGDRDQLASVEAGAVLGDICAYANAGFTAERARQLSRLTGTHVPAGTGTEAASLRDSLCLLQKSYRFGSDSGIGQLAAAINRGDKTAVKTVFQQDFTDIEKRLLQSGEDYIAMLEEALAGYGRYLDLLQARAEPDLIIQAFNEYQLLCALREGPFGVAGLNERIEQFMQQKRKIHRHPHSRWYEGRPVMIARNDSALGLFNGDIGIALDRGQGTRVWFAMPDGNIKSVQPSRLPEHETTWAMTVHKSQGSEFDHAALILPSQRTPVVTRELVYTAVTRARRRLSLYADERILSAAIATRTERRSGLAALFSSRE
# Sequence of Exodeoxyribonuclease V (P07648 whole entry): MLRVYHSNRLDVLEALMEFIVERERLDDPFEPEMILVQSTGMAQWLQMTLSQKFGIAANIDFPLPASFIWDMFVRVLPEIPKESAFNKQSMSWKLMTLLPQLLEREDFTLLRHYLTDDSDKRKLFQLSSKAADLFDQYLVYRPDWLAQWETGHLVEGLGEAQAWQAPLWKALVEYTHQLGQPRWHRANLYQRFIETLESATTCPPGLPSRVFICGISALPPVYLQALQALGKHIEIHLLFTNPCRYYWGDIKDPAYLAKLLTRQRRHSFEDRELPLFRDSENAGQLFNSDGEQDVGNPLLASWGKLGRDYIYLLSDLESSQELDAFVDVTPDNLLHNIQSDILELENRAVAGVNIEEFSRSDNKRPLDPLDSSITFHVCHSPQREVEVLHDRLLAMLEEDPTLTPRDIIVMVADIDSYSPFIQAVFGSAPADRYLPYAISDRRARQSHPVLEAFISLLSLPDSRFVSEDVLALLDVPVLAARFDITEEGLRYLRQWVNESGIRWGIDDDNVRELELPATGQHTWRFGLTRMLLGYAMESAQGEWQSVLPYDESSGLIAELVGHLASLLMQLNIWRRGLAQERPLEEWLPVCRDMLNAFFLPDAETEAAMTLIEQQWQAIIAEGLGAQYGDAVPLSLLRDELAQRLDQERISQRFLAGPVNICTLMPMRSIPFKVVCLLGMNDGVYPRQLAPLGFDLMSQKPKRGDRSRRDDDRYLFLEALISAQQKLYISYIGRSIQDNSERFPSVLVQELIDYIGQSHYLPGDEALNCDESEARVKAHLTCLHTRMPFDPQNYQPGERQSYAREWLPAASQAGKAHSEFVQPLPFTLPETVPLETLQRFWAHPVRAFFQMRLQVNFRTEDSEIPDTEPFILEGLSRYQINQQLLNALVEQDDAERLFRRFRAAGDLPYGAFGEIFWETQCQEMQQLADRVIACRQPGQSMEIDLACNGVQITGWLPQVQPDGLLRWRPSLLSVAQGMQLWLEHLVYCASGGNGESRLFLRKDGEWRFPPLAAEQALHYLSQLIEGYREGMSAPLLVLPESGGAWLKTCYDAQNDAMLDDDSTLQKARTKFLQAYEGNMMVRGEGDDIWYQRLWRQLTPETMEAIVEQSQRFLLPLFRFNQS
# Sequence of Exodeoxyribonuclease V (P08394 whole entry): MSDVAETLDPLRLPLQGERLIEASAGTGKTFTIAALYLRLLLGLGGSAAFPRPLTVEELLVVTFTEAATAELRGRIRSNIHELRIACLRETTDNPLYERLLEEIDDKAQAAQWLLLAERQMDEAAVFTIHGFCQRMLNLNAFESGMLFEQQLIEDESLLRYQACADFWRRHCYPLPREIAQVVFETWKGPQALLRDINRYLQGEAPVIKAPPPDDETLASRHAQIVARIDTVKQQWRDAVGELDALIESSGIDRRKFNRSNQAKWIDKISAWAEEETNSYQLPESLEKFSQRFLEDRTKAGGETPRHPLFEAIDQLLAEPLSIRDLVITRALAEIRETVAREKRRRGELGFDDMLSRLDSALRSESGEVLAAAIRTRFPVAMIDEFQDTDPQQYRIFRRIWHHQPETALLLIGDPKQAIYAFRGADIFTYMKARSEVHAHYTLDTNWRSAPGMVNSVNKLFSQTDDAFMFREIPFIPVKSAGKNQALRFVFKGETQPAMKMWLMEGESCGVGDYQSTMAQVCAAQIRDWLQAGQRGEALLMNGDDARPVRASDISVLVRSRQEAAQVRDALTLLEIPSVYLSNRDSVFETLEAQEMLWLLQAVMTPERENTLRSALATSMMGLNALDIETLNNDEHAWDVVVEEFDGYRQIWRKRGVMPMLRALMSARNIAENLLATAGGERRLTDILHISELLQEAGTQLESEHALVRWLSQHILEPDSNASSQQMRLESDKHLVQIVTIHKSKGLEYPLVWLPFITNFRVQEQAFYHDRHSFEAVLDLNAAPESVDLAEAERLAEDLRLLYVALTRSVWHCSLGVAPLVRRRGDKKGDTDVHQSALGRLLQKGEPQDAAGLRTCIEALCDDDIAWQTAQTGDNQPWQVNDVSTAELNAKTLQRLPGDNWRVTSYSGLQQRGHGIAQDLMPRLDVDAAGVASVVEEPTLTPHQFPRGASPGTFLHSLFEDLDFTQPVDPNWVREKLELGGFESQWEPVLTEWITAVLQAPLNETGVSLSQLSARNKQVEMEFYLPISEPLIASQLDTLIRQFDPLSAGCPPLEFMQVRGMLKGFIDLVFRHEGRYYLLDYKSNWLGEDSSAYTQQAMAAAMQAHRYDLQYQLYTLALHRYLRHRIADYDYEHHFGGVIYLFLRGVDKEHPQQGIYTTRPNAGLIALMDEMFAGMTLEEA
smiles,measurement,setting,value
Cc1ccc2nc3c(c(N)c2c1)CCN3C,EC50,[1],> 50 µM (active)
same,EC50,[2],2.37 µM (active)
same,AC50,CAAX prenyl protease 1,16.6 µM (active)
same,AC50,[3],21.7 µM (active)
same,AC50,[4],15.4 µM (active)
C=CCSc1nsc(NC(=O)Nc2ccc(F)cc2)n1,EC50,HEK293 [5],3.56 µM (active)
same,EC50,[6],8.13 µM (active)
same,IC50,HEK293 [7],2.64 µM (active)
same,EC50,Streptokinase A,23.4 µM (active)
same,IC50,HEK293 [8],10.1 µM (active)
same,IC50,HEK293 [9],2.93 µM (active)
same,EC50,Streptococcus,30.4 µM (active)
same,IC50,Exodeoxyribonuclease V,> 119 µM (inactive)
same,IC50,[10],> 119 µM (inactive)
same,AC50,INS1,3.1 µM (active)
Cc1nn(-c2nccs2)c2c1C(=O)CC(C)(C)C2Br (configuration not stated),AC50,[11],7.37 µM (active)
CCOc1ccc(/C=N/NC(=O)c2[nH]ncc2Br)c(O)c1,EC50,[12],14.9 µM (active)
same,IC50,[13],3.83 µM (active)
same,EC50,cells [14],191 µM (active)
same,IC50,[15],3.4 µM (active)
same,EC50,[16],> 38 µM (not active)
same,EC50,[17],1.48 µM (active)
same,EC50,cells [18],7.33 µM (active)
same,EC50,[19],10.3 µM (active)
same,IC50,[20],73.8 µM (active)
same,EC50,[21],6.69 µM (active)
same,EC50,[22],8.97 µM (active)
same,EC50,[23],11.5 µM (active)
same,AC50,INS1,1.14 µM (active)
Cc1c(C(=O)N/N=C/c2c(O)ccc3ccccc23)nnn1-c1nonc1N,EC50,[24],0.898 µM (active)
same,EC50,[6],5.56 µM (active)
same,EC50,cells [25],0.958 µM (active)
same,EC50,[26],< 0.1 µM (active)
same,EC50,Streptokinase A,> 150 µM (not active)
same,EC50,Streptococcus,> 150 µM (not active)
same,EC50,[27],0.953 µM (active)
same,IC50,[20],95.2 µM (active)
same,EC50,[21],7.47 µM (active)
same,IC50,[28],> 80 µM (inactive)
same,EC50,[22],8.92 µM (active)
same,EC50,[23],8.59 µM (active)
same,AC50,INS1,0.317 µM (active)
